Data as given in patent publication US11717557B2, “Use of PRG4 as an anti-inflammatory agent” (Lubris LLC, priority 2015, dated 2023).

Experiments:
CD44 IgG1Fc [1] = molecular target: T1, CD44 IgG1Fc (Homo sapiens, UniProt P16070); assay: Direct ELISA: binding of coated macromolecules to CD44-IgG1Fc versus IgG1Fc; conditions: wells coated at 400 μg/mL; CD44-IgG1Fc or IgG1Fc 1 μg/mL; p<0.001 where significant
T1 construct: purchased R & D systems
Description: High-binding microtiter plates (Corning, Sigma Aldrich, USA) were coated with rhPRG4 (Mr≅240 KDa), high molecular weight HA (HMW HA; Mr≈1,500 KDa) (R & D System, USA), medium molecular weight HA (MMW HA; Mr≈300 KDa) (R & D System) and vitronectin (Mr≅75 KDa) (Sigma Aldrich) at 400 μg/mL in PBS buffer (100 μL per well) overnight at 4° C. rhPRG4 is a full-length product produced by CHO-M cells (Lubris, Framingham, Mass., USA). Following washing with PBS+0.1% Tween 20, wells were blocked with 2% bovine serum albumin (BSA; 300 μL per well) for at least 2 hours at room temperature. CD44-IgG1Fc (R & D systems) or IgG1Fc (R & D systems), each at 1 μg/mL (100 μl per well), were added to the plate and incubated for 60 min at room temperature. Following washing with PBS+0.1% tween 20, anti-IgG1Fc-HRP (Sigma Aldrich) was added at 1:10,000 dilution (100 μL per well) and incubated for 60 min at room temp. Following washing with PBS+0.1% tween 20, the assay was developed using 1-step Turbo TMB ELISA reagent (ThermoScientific, USA) and absorbance was measured at 450 nm. The data represents an average of 4 independent assays, each with triplicate wells per group.

CD44 IgG1Fc [2] = molecular target: T1, CD44 IgG1Fc; assay: Surface plasmon resonance binding of rhPRG4 to CD44 and competition with HMW HA
Description: Binding of rhPRG4 to CD44-IgG1Fc was investigated using surface plasmon resonance (Biacore T100, GE Healthcare Lifesciences, NJ, USA). Series S chips were functionalized using the human antibody capture kit (GE Life Sciences) and either CD44-IgG1Fc or IgG1FC was allowed to bind to the surface of the functionalized chips in flow cell 1 (Fc1) and flow cell 2 (Fc2), respectively. rhPRG4 was injected at 30 μL/min for 8 min at concentrations of 300, 250, 200, 150, 100 and 50 μg/mL followed by a 10 min dissociation using 0.1M HEPES, 1.5M NaCl, 30 mM EDTA, and 0.5% P20 (GE Life Sciences). The surface of the chip was regenerated at the end of each cycle with 1 min pulse of 3M MgCl2. Each analyte concentration was injected in duplicate. The resulting curves were double referenced (i.e. Fc2-Fc1, followed by subtraction of the 0 μg/mL curve). The binding kinetics and binding affinity were determined by BiaEvaluation software, using 1:1 binding/conformational change model or by steady-state equilibrium, respectively. To study the competition between rhPRG4 and HMW HA in binding to CD44, rhPRG4 was injected at concentrations ranging between 0 and 300 μg/mL as described above. Following the end of dissociation phase, HMW HA was injected at 50 μg/mL (30 μL per min) for 1 min. […]

whole citrated blood = assay: Lubricin alone, inflammatory cytokines in whole blood; type: cell-based, human; conditions: lubricin 0.57 mg/mL, 60 minutes; versus saline control
Description: Utilizing the same approach the effect of lubricin on the generation of inflammatory cytokines in whole blood was also studied using similar experimental settings. In these studies the effect of lubricin (0.57 mg/mL) was studied by supplementing it to the whole citrated blood drawn from the normal healthy volunteers. The samples were profiled for inflammatory cytokine levels along with a saline control in samples incubated for 60 minutes. Whole blood was centrifuged to obtain plasma which was profiled for various inflammatory cytokines using high sensitivity cytokine assay.

whole blood = assay: Lubricin on TNF-α mediated inflammatory cytokine generation in whole blood; type: cell-based, human
Description: The effect of lubricin on TNF-α mediated inflammatory cytokine generation was studied using Biochip Array technology. Recombinant TNF-α was used as a trigger to generate inflammatory cytokines in whole blood. The effect of lubricin was studied on the TNF-α mediated generation of various cytokines. TNF-α alone at a concentration of […] was supplemented to the whole blood which was incubated for 60 minutes at 37° C. TNF-α was supplemented to whole blood in a 1:10 dilution. The modulatory effects of lubricin on TNF-α-mediated generation of various cytokines were studied by supplementing lubricin at 0.57 mg/mL in the whole blood immediately prior to addition of TNF-α. After 60 minutes plasma was obtained from centrifugation and analyzed for inflammatory cytokine using Randox Biochip arrays.

traumatic brain injury = assay: Traumatic brain injury model, controlled cortical impact, Western blotting of cerebral cortex; type: in vivo, rats
Description: Approximately one hour after traumatic brain injury to rats, using an established brain injury model involving a controlled cortical impact, rhPRG4 was administered intravenously to test rats at an approximate dose of 2.5 mg/Kg. Normal saline (0.9% NaCl) was administered intravenously to control rats. One day later, brains were harvested and the samples of the cerebral cortex surrounding the post-traumatic lesion were analyzed using Western blotting.

[3] = test system: sodium urate crystal induced joint pain; assay: Urate crystal gout model, Von Frey paw withdrawal; type: in vivo; conditions: rhPRG4 injection after urate crystals; two rats per group
Description: Male Lewis rats (10 weeks old; n=4) were injected with MSU suspension (50 μL; 5 mg/mL; Invivogen, California) in their knee joints. At 1 hour following MSU injection, rat knee joints were treated with 50 μL phosphate buffered saline (PBS; n=2) or rhPRG4 (50 μL; 2 mg/mL) (n=2). Paw withdrawal pressures were measured using an electronic Von Frey instrument, and data is present as percent change from baseline values.
Rats undergoing injection of sodium urate crystals were studied as a model of gout. 24 hours following the sodium urate crystal administration, rats developed joint pain. Two rats received saline while another two rats received rhPRG4 injection 24 hours after the urate crystals were introduced. These rats were studied every 12 hours utilizing the Von Frey method. This method determines afferent pain sensitization as a result of joint inflammation by probing the paws of the affected limb with a thin filament wire.

[4] = approx. 2.5 mg/Kg intravenously, versus normal saline

Substance: rhPRG4: full-length recombinant human PRG4 (lubricin) glycoprotein produced by CHO-M cells (Lubris), Mr≅240 KDa
- 450 nm absorbance in the CD44-IgG1Fc group versus the IgG1Fc group (CD44 IgG1Fc [1]): significantly higher
- Kd (CD44 IgG1Fc [2]; immobilized CD44-IgG1Fc, based on a rhPRG4 molecular weight of 240 KDa, read-out: apparent Kd): ~38 nM
- effect on binding of HMW HA to recombinant CD44 (CD44 IgG1Fc [2]; rhPRG4 0-300 μg/mL, then HMW HA 50 μg/mL, inverse relationship of binding signals): interfered with binding of HMW HA
- VEGF, IL8, IL6 and IL10 (whole citrated blood): most prominent decrease
- production of IL-4, IL-6, IL-8, IL-10, VEGF, TNF-α, IL-1β, MCP-1 and EGF (whole citrated blood): decrease
- IL-6, IL-8, IL-10, VEGF, TNF-α, IL-1β and EGF (whole blood; lubricin 0.57 mg/mL before TNF-α 100 mg/mL, 60 minutes at 37° C., versus TNF-α alone): decrease
- decrease of the levels of cytokines (whole blood; lubricin 0.57 mg/mL, versus TNF-α alone): 10-100%
- TNF-α stimulated IFN-γ and TNF-α (whole blood; lubricin 0.57 mg/mL, versus stimulation in the absence of lubricin): most dramatic decrease
- down regulation of Galectin 3 (traumatic brain injury; approx. 2.5 mg/Kg intravenously about one hour after injury, brains harvested one day later, versus normal saline): 74%
- attenuation of post-traumatic synthesis of matrix metalloproteinase 9 (traumatic brain injury; [4]): 94%
- inhibition of the conversion of pro-matrix metalloproteinase 2 to its enzymatically active form (traumatic brain injury; [4]): 64%
- reduction in the magnitude of post-traumatic influx of monocytes into the injured brain parenchyma (traumatic brain injury; approx. 2.5 mg/Kg intravenously, versus normal saline-treated rats): 60%
- reduction of the permeability of the blood-brain barrier (traumatic brain injury; assessed by level of albumin in traumatized brain tissue, approx. 2.5 mg/Kg intravenously): 80%
- pain (Von Frey method) versus rats which received placebo [3]: less pain
